# Experimental data reported in EPA's ToxValDB 9.5 (doi:10.2903/j.efsa.2010.1721).
# Assays:
# Aphidius rhopalosiphi = experiment: LR50; higher = less toxic; settings: not reported; mortality
# Typhlodromus pyri = experiment: LR50; higher = less toxic; settings: not reported; mortality
# Anas platyrhynchos = settings: oral, mortality
# Daphnia magna = settings: chronic/long-term; duration: 21 days; reproduction
# Tagia sp. = settings: acute; duration: 14 days; mortality
# Colinus virginianus = settings: for LD50: acute, oral, mortality
# Oryctolagus sp. = settings: reproduction developmental; body weight
# Canidae = settings: chronic; duration: 1 years; oral; Dog Other; organ weight
# Apis mellifera = settings: acute; duration: 48 hours; oral; unspecified; mortality
# Mus musculus = settings: acute; oral; mortality
smiles,measurement,setting,value
CCOc1ccc(NC(=O)OC(C)C)cc1OCC [Diethofencarb],LR50,Aphidius rhopalosiphi,> 1500 g/ha
same,LR50,Typhlodromus pyri,7.2 g/ha
same,LD50,"Anas platyrhynchos; acute, unspecified",> 2250 mg/kg-day
same,LD50,"Anas platyrhynchos; short-term, feed",> 1630 mg/kg-day
same,NOEC,Daphnia magna,0.032 mg/L
same,LC50,Tagia sp.,> 1000 mg/kg
same,LD50,Colinus virginianus; diet,> 1810 mg/kg-day
same,LD50,Colinus virginianus,> 2250 mg/kg-day
same,NOEL,Colinus virginianus; reproduction developmental,78.7 mg/kg-day
same,LD50,"Rattus norvegicus; acute, oral, mortality",> 5000 mg/kg-day
same,NOAEL,"Rattus norvegicus; chronic, duration: 2 years, organ weight",42.7 mg/kg-day
same,LC50,"Oncorhynchus mykiss; acute, duration: 96 hours, mortality",> 10 µg/mL
same,NOEC,"Oncorhynchus mykiss; chronic/long-term, duration: 88 days, growth",0.072 mg/L
same,NOEL,Oryctolagus sp.,300 mg/kg-day
same,NOAEL,Canidae,50 mg/kg-day
same,LD50,Apis mellifera,> 100 µg/piece
same,LD50,Mus musculus,> 5000 mg/kg-day
